The source of these data is patent US20100105772A1, “USE OF NOVEL LIPID MEDIATORS TO INHIBIT ANGIOGENESIS” (priority 2008, published 2010).

Assay [1] deals with macrophage phagocytosis (e.g. of apoptotic neutrophils). The settings on record: reference 26; cited from earlier work.
Assay [2] has as its system VEGF-A-induced corneal HA and LA. Nature of the assay: Corneal micropocket assay with VEGF-A pellets (vessel density). Type of assay: in vivo, mice. Conditions: VEGF-A micropellet, day 7. The protocol:
FIG. 6. ATLa Regulate IL-1β- and VEGF-A-induced Corneal HA and LA. Hydron pellets containing IL-1β or VEGF-A were implanted into the corneas on day 0. ATLa or vehicle was subconjunctivally injected every 48 h from 0 to 7 days after pellet implantation (4 corneas per treatment, for each pellet-type). A. Slit-lamp examination was performed on day 7 and representative images are shown. B. The density of blood vessels (CD31^high/LYVE-1^−) or lymphatic vessels (CD31^lowLYVE-1^high) covering each cornea was analyzed. Values are expressed as the mean (±SEM) of each treatment group (4 corneas per group) and the data are representative of two independent experiments (*P<0.05 vs vehicle-treated group, t-test).
The corneal micropocket assay in mice and quantification of the resultant NV has been described previously.^16,17 In brief, 0.3 μl of hydron pellets (IFN Sciences, New Brunswick, N.J.) containing 30 ng of murine IL-1β (R&D Systems, Minneapolis, Minn.) or 200 ng of VEGF-A (gift from BRB Preclinical Repository, National Cancer Institute) were prepared and implanted into the corneal stroma of male BALB/c mice. After 7 days the animals were sacrificed and the corneas were harvested for quantitative analysis of HA and LA.
BALB/c mice were randomized to receive ATLa, or vehicle (normal saline) by subconjunctival injection in a masked fashion after suture or hydron pellet placement. […]

A further assay concerns IL-1β mRNA. In words: Real-time PCR of IL-1β mRNA in suture-induced inflamed corneas. In kind it is in vivo, mice. Conditions: 24 h and 72 h after suture placement; vs vehicle-treated controls. The protocol: FIG. 3. Lipoxin Reduces Cytokine mRNA Expressions in Inflamed Corneas. ATLa or vehicle was subconjunctivally injected at 0 h and 48 h after suture placement. For each compound treatment, corneas were harvested from a group of mice at 24 h, and another group at 72 h after suture placement, as well as from normal untreated control corneas (6 corneas per group). mRNA levels of inflammatory cytokines (including IL-1α, IL-1β, and TNF-α) were determined by real-time PCR. Data were normalized to GAPDH mRNA and values were expressed as the fold change over normal control corneas. Results represent the mean (±SEM) of three samples per group (each sample consisted of 2 pooled corneas), and data are representative of two independent experiments (*P<0.05, **P<0.001 vs vehicle-treated group, t-test). […]
BALB/c mice were randomized to receive ATLa, or vehicle (normal saline) by subconjunctival injection in a masked fashion after suture or hydron pellet placement. […] ATLa was synthesized as described previously.^20 The physical properties were monitored routinely via LC/MS/MS matching the reported biological and physical properties prior to analysis in present experiments. […]
On the technique in general: Quantitative PCR measures a nucleic acid by following its amplification.

`COC(=O)CCC[C@H](O)[C@H](O)/C=C/C=C/C=C\C=C\[C@H](O)COc1ccc(F)cc1` [ATLa, 15-epi-16-(para-fluoro)-phenoxy-lipoxin A4 methyl ester]: the macrophage phagocytosis entry in assay [1] is recorded as “increase”. The same molecule displayed a BV density in assay [2] (n=4, mean±SEM) of 5.9±0.4%. Further, the “LA stimulated by VEGF-A” value in assay [2] (vs vehicle) is given as “no significant reduction”. Besides, the “reduction in the increase of IL-1β expression levels (mRNA)” value with IL-1β mRNA is reported as “more than 50%”.
